2 compounds from patent publication US20160109430A1, “METHODS FOR DRUG DISCOVERY” (Memorial Sloan-Kettering Cancer Center, priority 2014, published 2016) can be followed below.

Common to all, as to type: cell-based
In experiment [1] the test system is LS8817 cells. As to the kind of experiment: ATRX foci per cell by immunofluorescence in LS8817 cells. The procedure:
(§1) Cells were washed twice with PBS and fixed with 4% paraformaldehyde at room temperature for 20 minutes. Cells were again washed twice with PBS and treated with 0.5% triton X-100 in PBS. Cells were again washed twice with PBS and blocked in 5% BSA in PBS for 30 minutes at room temperature. Cells were incubated with anti-ATRX antibody, obtained from Bethyl, Cat No. A301-045A, diluted at 1:2000 in PBS (stock is provided at 1 mg/ml) overnight at 4 degrees Celsius. The following day, cells were washed twice with PBS and incubated with Alexa Fluor-488 anti-rabbit secondary diluted at 1:500 in PBS (stock was provided at 2 mg/ml) for one hour at room temperature. Cells were washed twice with PBS and incubated with 0.1 μg/ml DAPI for 5 minutes at room temperature. Cells were washed three times with PBS and slides were mounted in Vectashield fluorescence mounting media. Slides were imaged using a Zeiss Axioplan 2 Upright Microscope.

The subject of experiment [2] is LS8817 cells. As to the kind of experiment: Senescence-associated β-galactosidase / senescence analysis in LS8817 cells. Particulars: for accumulation of SA-β-gal staining: 100 μM doxorubicin for five days.
For experiment [3], the system named is LS8107 cells. As to the kind of experiment: ATRX foci per cell by immunofluorescence in LS8107 cells. The following applies: PD0332991 followed by shMDM2, compared to untreated or PD0332991 alone. The procedure: as §1
The subject of experiment [4] is LS8107 cells. As to the kind of experiment: Senescence analysis (SA-β-gal) in LS8107 cells. The procedure:
(§2) Cells were plated at a concentration of 25,000 per well in a 4-well chamber slides (Lab-Tek) and treated for seven days with drug and stained for senescence-associated β-galactosidase (Cell Signaling kit #9860). Cell number was quantitated by DAPI staining and β-galactosidase staining quantitated as a proportion of total cells.

Experiment [5] deals with U2OS cells. As to the kind of experiment: Senescence analysis (SA-β-gal) in U2OS cells. The procedure: as §2

As to `COc1cccc2c1C(=O)c1c(O)c3c(c(O)c1C2=O)C[C@@](O)(C(=O)CO)C[C@@H]3O[C@H]1C[C@H](N)[C@H](O)[C@H](C)O1` [doxorubicin], the “ATRX foci in cells expressing shATRX” value in experiment [1] (LS8817 cells expressing shATRX, 100 μM doxorubicin for five days) is “not observed”. Moreover, the “average number of ATRX foci per cell” value in experiment [1] (LS8817 cells, 100 μM doxorubicin for five days, control cells about 8) is listed as “about 35”. The results for the “accumulation of SA-β-gal staining” value in experiment [2] (LS8817 cells expressing shATRX) and in experiment [2] (LS8817 cells expressing shSCR) were “did not significantly accumulate” and “significantly accumulated”, respectively.

For the compound `CC(=O)c1c(C)c2cnc(Nc3ccc(N4CCNCC4)cn3)nc2n(C2CCCC2)c1=O` [PD0332991], the “average number of ATRX foci per cell” value in experiment [1] (LS8817 cells, PD0332991 1 μM or 0.1 μM) is recorded as “significant increase”. Further, the “number of ATRX foci per cell” value is reported as “prevented an increase” in experiment [1] (LS8817 cells, PD0332991 in the presence of exogenous MDM2 (tet-on-MDM2-Flag, doxycycline), compared to PD0332991 alone) and “significant increase” in experiment [3]. Also, the “cell state (quiescent or senescent)” value is on record as “entered a quiescent state” in experiment [4] (CDK4 inhibitor alone) and “enter a senescent state” in experiment [2] (LS8817 cells, 1 μM or 0.1 μM). In experiment [4] (PD0332991 followed by shMDM2), the “accumulation of SA-β-gal” value is “accumulation of SA-β-gal”. Moreover, the “cell state (quiescent or senescent) on CDK4 inhibition, by SA-β-gal” value in experiment [5] (U2OS cells expressing exogenous ATRX) is reported as “entering a senescent state”. For the same compound, the “cell state (quiescent or senescent) on CDK4 inhibition” value in experiment [5] (U2OS cells that do not express endogenous ATRX) was “entering a quiescent state versus a senescent state”.
